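A five-concentration, 48-hour dose response in 96-well plates underlies each endpoint, interpolated linearly between surrounding concentrations. The concentration for 50% growth inhibition is given as GI50.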 Calls of active or inactive are those of the source. Cut-off read from the data, not from the text of the source: active = GI50 up to about 1.1 µM and inactive = higher. Where only a bound is given, the exact number is not on record here.

Among the test systems are Hs-578T; DMS-273; XF498; DMS-114; DLD-1; KM-20L2; HOP-18; SNB-78; RXF 631.
Assay in all cases: growth of human tumour cells (NCI), 48 h

On to `CCOC(=O)C1(C/C=C\CBr)CCCC1=O` (configuration not stated), for which the GI50 with Hs-578T is 55.6 µM (inactive).
Same read-out and setting: then `O/N=N/c1ccc(Sc2ccc(/N=N/O)cn2)nc1`, with > 100 µM (inactive); and `C[C@]12CC[C@H](O)CC1=CC[C@@H]1[C@@H]2CC[C@]2(C)C(=O)/C(=C/c3ccc([N+](=O)[O-])cc3)C[C@@H]12`, with 7.83 µM (inactive).
Turning to `C/C(=N\O)c1ccc2ccc3ccccc3c2c1`, the GI50 in the experiment on Hs-578T was 27.6 µM (inactive).
In the case of `Clc1ccc(C2Nc3ccccc3C3=NCCN32)cc1` (configuration not stated), in the experiment on Hs-578T, the GI50 is 33.3 µM (inactive).
On to `CO[C@H]1O[C@@H]2CO[C@@H](c3ccccc3)O[C@H]2C[C@]12CCC/C=C\CO2`, for which, in the experiment on Hs-578T, the GI50 was 16.4 µM (inactive).
As to `CCn1cc2c(=O)n3ncn(-c4ccc(Br)cc4)c3nc2n1`, in the experiment with Hs-578T, the GI50 was 29.9 µM (inactive).
In the case of `CCOC(=O)c1nc2ccc(C(F)(F)F)cc2nc1Nc1ccc(Cl)c(Cl)c1`, in the experiment with Hs-578T, the GI50 is 97.3 µM (inactive).
In the case of `COc1ccc(Nc2nc(N)c(C(=O)c3ccc(Cl)cc3)s2)cc1`, the GI50 in the experiment on Hs-578T was < 0.01 µM (active).
In the case of `N[C@H]1C2C3CC4C5CC(C42)C1(c1ccccc1)C53` (some centres not stated), the GI50 in the experiment on DMS-273, with XF498, in the experiment on DMS-114, in the experiment with DLD-1, in the experiment on KM-20L2 and with HOP-18 was > 100 µM (inactive) throughout. Moreover, in the experiment on SNB-78, the GI50 is > 100 µM (inactive).
With `N=C(N)N1CCC(N2CCOCC2)CC1`, the GI50 in the experiment on Hs-578T was > 100 µM (inactive).
As to `CCC1=CCC(P(=O)(c2ccccc2)c2ccccc2)CC1C` (configuration not stated), the GI50 with DMS-273 was 36.3 µM (inactive); in the experiment on XF498, 40.1 µM (inactive); in the experiment with DMS-114, 32.9 µM (inactive); in the experiment with KM-20L2 it was 37.1 µM (inactive); in the experiment with HOP-18, 22.8 µM (inactive); with SNB-78 it was 61.2 µM (inactive).
On to `O=P12N(CCN1c1ccccc1)CCN2c1ccccc1`, for which the GI50 in the experiment with Hs-578T is > 100 µM (inactive).
Same read-out and setting: then `O=C(NCCc1ccc(F)cc1)c1cc(/C=C/c2cc(O)ccc2O)ccc1O`, with 4.26 µM (inactive); and `CC1=NN(c2nc(N)nc(/C(C#N)=C\c3ccc(-c4ccc([N+](=O)[O-])cc4)o3)n2)C(C)(C)C1`, with 62.2 µM (inactive).
For the molecule `O/N=N/c1ccc2ccccc2n1`, the GI50 in the experiment on Hs-578T was > 100 µM (inactive).
Take `COC1=CC(=O)C2[C@H]3Cc4ccccc4[C@H]3C2(C)C1=O` (some centres not stated): the GI50 was > 100 µM (inactive) in the experiment with DMS-273; 51.5 µM (inactive) in the experiment with XF498; > 100 µM (inactive) with DLD-1; 77.3 µM (inactive) in the experiment on KM-20L2; > 100 µM (inactive) in the experiment with RXF 631; 78 µM (inactive) in the experiment on SNB-78.
With `C/N=N/N(C)C(=O)NC`, the GI50 in the experiment on DMS-114, with DLD-1, in the experiment with KM-20L2 and in the experiment on HOP-18 was > 100 µM (inactive) throughout.
For the molecule `Cc1cc(=O)oc2cc(OC(=O)N(C)C)c(Cl)cc12`, the GI50 with Hs-578T is > 100 µM (inactive).
Regarding `Clc1cccc(/N=C/C=C/Nc2cccc(Cl)c2)c1`, the GI50 in the experiment with Hs-578T was 29.8 µM (inactive).
For the molecule `S=c1sc2ccccc2n1CN1CCN(Cc2ccccc2)CC1`, the GI50 in the experiment with Hs-578T was > 100 µM (inactive).
On the same count and under the same terms, as for `O=c1[nH]nc(Cc2ccc(Cl)cc2)n1/N=C\CC/C=N\n1c(Cc2ccc(Cl)cc2)n[nH]c1=O`, the figure is 11.4 µM (inactive); as for `Cc1nc2sccn2c1C(=O)OCCOCCOCCOCCOC(=O)c1c(C)nc2sccn12`, > 100 µM (inactive).
In the case of `COc1c(O)c(O)c2c(c1O)C(=O)c1cc(C)cc(O)c1C2=O`, in the experiment with Hs-578T, the GI50 is 19.6 µM (inactive).
In the case of `N#CCCC1C(C#N)C2CC1C1C3C=CC(C3)C21` (configuration not stated), the GI50 in the experiment on Hs-578T is > 100 µM (inactive).
Regarding `N/N=C1\C(=O)N(C2CCCCCC2)C(=O)C1C(=O)NC1CCCCCC1` (configuration not stated), the GI50 in the experiment on DLD-1 was 41.5 µM (inactive); in the experiment with KM-20L2, 19.5 µM (inactive); with HOP-18, 31 µM (inactive); in the experiment with SNB-78 it was 21.8 µM (inactive).
Take `Nc1nc(F)nc2c1ncn2C1OC(CO)C(O)C1O` (configuration not stated): in the experiment with Hs-578T, the GI50 is > 100 µM (inactive).
Take `O=C1/C=C(/c2ccc(O)cc2)[C@@H](O)Cc2ccc(O)cc2O1`: the GI50 in the experiment on DMS-114 is 51.3 µM (inactive); in the experiment with DLD-1, > 100 µM (inactive); with KM-20L2, > 100 µM (inactive); in the experiment with RXF 631, 38.2 µM (inactive); in the experiment on SNB-78, 41.8 µM (inactive).
For `Cc1ccc(C(=O)N(Cc2ccccc2)Cc2ccccc2)cc1/N=N/N(C)C`, the GI50 in the experiment with DMS-273 was 41.8 µM (inactive); in the experiment on DLD-1, 21.4 µM (inactive); in the experiment with SNB-78, 27.2 µM (inactive); in the experiment on Hs-578T, 19.3 µM (inactive).
In the case of `Cc1cc(S(=O)(=O)Nc2nc(N)nc(N(C)C)n2)c(SC(C(=O)O)c2ccccc2)cc1Cl` (configuration not stated), the GI50 in the experiment on Hs-578T was > 10 µM (inactive).
For the molecule `COC(=O)[C@@H]1c2[nH]c3ccccc3c2C[C@@H]2c3ccccc3NC(=O)[C@@H]21`, the GI50 with DMS-273 was > 57.5 µM (inactive); with XF498, > 100 µM (inactive); with DMS-114, > 100 µM (inactive); with DLD-1 it was > 100 µM (inactive); with KM-20L2, > 100 µM (inactive); with SNB-78 it was > 76.4 µM (inactive).
As for `COc1ccc(C(=O)N/N=C/c2c(C)n(C)n(-c3ccccc3)c2=O)cc1`, the GI50 with DMS-273, with XF498, with DMS-114, in the experiment on DLD-1, in the experiment on KM-20L2 and in the experiment with HOP-18 was > 100 µM (inactive) each time. The GI50 in the experiment with SNB-78 is > 100 µM (inactive).
Take `BrC(=C(c1ccc(OC2CCCCO2)cc1)c1ccc(OC2CCCCO2)cc1)c1ccccc1` (configuration not stated): the GI50 in the experiment on Hs-578T is > 100 µM (inactive).
In the case of `CN(C)CCNc1ccc2nnn3c4ccc(Cl)cc4c(=O)c1c23`, the GI50 is 2.82 µM (inactive) with DMS-273; 8.73 µM (inactive) in the experiment on XF498; 3.21 µM (inactive) with DLD-1; 2.86 µM (inactive) with KM-20L2; 2.37 µM (inactive) in the experiment with RXF 631; 11.9 µM (inactive) with SNB-78. For the same molecule, in the experiment with Hs-578T, the GI50 is 3.3 µM (inactive).
Regarding `Nc1nc(N)c(CCCCc2ccccc2)c(N)n1`, the GI50 with DMS-273, with XF498, with DMS-114, in the experiment with DLD-1, in the experiment on KM-20L2 and in the experiment with Hs-578T was > 100 µM (inactive) in each case.
Turning to `COc1cccc2c1OC(c1cccc3ccccc13)C([N+](=O)[O-])=C2` (configuration not stated), in the experiment on Hs-578T, the GI50 is 2.48 µM (inactive).
`CC(NC(=O)/C(C#N)=C/c1ccc2[nH]ccc2c1)c1ccccc1` (configuration not stated): the GI50 with DMS-273 is 23.5 µM (inactive); in the experiment on DMS-114, 22.3 µM (inactive); in the experiment on DLD-1, 19.1 µM (inactive); with KM-20L2, 18.6 µM (inactive); in the experiment on HOP-18, 24.3 µM (inactive); with SNB-78, 38.7 µM (inactive). For the same molecule, in the experiment with Hs-578T, the GI50 is 31.6 µM (inactive).
On to `Cc1ccc(Sc2ccccc2C23OC(C)(C4C(=O)N(c5ccccc5)C(=O)C42)N(C)C3=O)cc1` (configuration not stated), for which the GI50 in the experiment with Hs-578T was 59.4 µM (inactive).
With `Cc1cc(N(CCC#N)CCC#N)ccc1/C=C(\NC(=O)/C=C/c1ccccc1)NC(=O)Nc1ccc(Cl)cc1`, the GI50 in the experiment on DMS-273 was 5.04 µM (inactive); in the experiment on XF498, > 100 µM (inactive); in the experiment on DMS-114, 17.3 µM (inactive); in the experiment with DLD-1, 75 µM (inactive); in the experiment with KM-20L2 it was 5.37 µM (inactive); with SNB-78, > 10 µM (inactive).
For `COC(=O)C1(C(=O)OC)Cc2ccc(OC)cc2C2=C1C(=O)c1ccccc1C2=O`, the GI50 in the experiment on Hs-578T is 8.93 µM (inactive).
Regarding `COc1ccc(OC)c(-c2cn3c(n2)sc2ccccc23)c1`, the GI50 with Hs-578T was 39.7 µM (inactive).
Turning to `C/C(CN1C(=O)c2ccccc2C1=O)=N\NS(=O)(=O)c1ccc(C)cc1`, the GI50 in the experiment on DMS-273, with DLD-1, with KM-20L2, in the experiment with HOP-18 and with SNB-78 was > 100 µM (inactive) each time.
In the case of `C=Nc1ccc([N+](=O)[O-])cc1`, the GI50 in the experiment with DMS-273 is > 100 µM (inactive); with XF498 it was > 100 µM (inactive); with DMS-114, > 100 µM (inactive); in the experiment with DLD-1, > 100 µM (inactive); with KM-20L2, > 100 µM (inactive); in the experiment on HOP-18, > 26.1 µM (inactive). In addition, in the experiment on SNB-78, the GI50 was > 100 µM (inactive).
`COc1cccc2cc(C(N)=O)c(=N)oc12`: in the experiment on Hs-578T, the GI50 was 31.5 µM (inactive).
Regarding `N#C/N=C(/NCc1ccccc1)N(Cc1ccccc1)Cc1ccccc1`, the GI50 in the experiment with DMS-273, in the experiment on XF498, with DMS-114, in the experiment on DLD-1 and in the experiment on KM-20L2 was > 10 µM (inactive) throughout.
For the molecule `O=c1onc2n1-c1cc(Cl)ccc1C(=S)N1CSCC21` (configuration not stated), in the experiment on Hs-578T, the GI50 is > 100 µM (inactive).
In the case of `Brc1ccc2nc(-c3cccs3)nc(N3CCN(c4ccccc4)CC3)c2c1`, in the experiment on Hs-578T, the GI50 was > 100 µM (inactive).
For the molecule `CC(=N\N)/C(C)=N/N=C(C)/C(C)=N/N=C(C)/C(C)=N/N=C(C)/C(C)=N/N`, in the experiment on Hs-578T, the GI50 was > 100 µM (inactive).
With `C#CC1(O)CCC2C3CCc4cc(Oc5nc(F)nc(-c6c7ccccc7c7sc8ccccc8n67)n5)ccc4C3CC[C@@]21C` (some centres not stated), the GI50 was 75.5 µM (inactive) in the experiment with DMS-273, > 100 µM (inactive) with XF498, > 100 µM (inactive) with DLD-1 and > 100 µM (inactive) in the experiment with KM-20L2.
For `COc1c2c(cc3occ(-c4ccc(CC=C(C)C)cc4)c(=O)c13)OC(C)(C)C=C2`, in the experiment with Hs-578T, the GI50 is 85.1 µM (inactive).
With `CCN(CC)C(=S)SC(C(=O)Nc1nnc(-c2ccc(Cl)cc2)o1)c1ccccc1` (configuration not stated), the GI50 in the experiment with Hs-578T was 35.4 µM (inactive).
With `COC(COC(N)=O)C1=C(N2CC2)C(=O)C(C)=C(N2CC2)C1=O` (configuration not stated) [CARBOQUONE], the GI50 is < 0.01 µM (active) with DMS-273; 0.154 µM (active) in the experiment with XF498; 0.063 µM (active) in the experiment with DMS-114; 0.113 µM (active) with DLD-1; 0.0608 µM (active) in the experiment with KM-20L2; 0.199 µM (active) with HOP-18. Further, the GI50 with SNB-78 is 0.574 µM (active); in the experiment on Hs-578T, 0.218 µM (active).
For `COC1=CC(=O)c2c(cc(COP(=O)(OCC3OC(n4cc(F)c(=O)[nH]c4=O)CC3O)N(C)CCCCCl)n2C)C1=O` (configuration not stated), the GI50 in the experiment with Hs-578T was 0.0877 µM (active).
As for `COc1cc(C2c3cc4c(c(O)c3C(=O)C3CCC(=O)N32)OCO4)cc(OC)c1OC` (configuration not stated), in the experiment with Hs-578T, the GI50 is 37.7 µM (inactive).
`CN(C)CS/C(N)=N\C(O)C(Cl)(Cl)Cl` (configuration not stated): the GI50 with Hs-578T was > 100 µM (inactive).
As to `COc1cc2ncnc(Nc3cccc(Br)c3)c2cc1OC`, the GI50 with Hs-578T is 4.44 µM (inactive).

(Values after ChEMBL document CHEMBL1201862, “PubChem BioAssay data set” (2004).)
